The conditions of series [1]: basic aqueous solution used in the Stretford process; background statement; cited from earlier work.
Series [2] can be described thus: Solubility (g/l, 25° C.) in alkaline inorganic salt solutions and water. As to conditions: for Solubility: 25° C.
Series [3] can be described thus: Time required for being reduced to the leuco form by sodium vanadite. In kind it is physicochemical. As to conditions: 38° C., nitrogen, sodium vanadite 0.02 mol/l, anthraquinonesulfonate 0.04 mol/l, NaOH 0.04 mol/l. Here is the method: (§1) Easiness in oxidation-reduction of these compounds is evaluated by their standard oxidation-reduction potential and their oxidation and reduction rates.

The nature of series [4]: Time required for oxidation by air to regenerate the quinone form. In kind it is physicochemical. As to conditions: 38° C., leucoanthraquinonesulfonate 0.04 mol/l, NaOH 0.08 mol/l. Here is the method:
as §1
**Air was absorbed at 38° C. in an aqueous solution containing a
given leucoanthraquinonesulfonate (0.04 mol/l) and sodium hydroxide (0.08
mol/l) under agitation whereby the time required for finishing the
airabsorption was measured.

Series [5] is described as follows: Standard oxidation-reduction potential Eo. In kind it is physicochemical. Conditions: for Standard oxidation-reduction potential Eo: 25° C.; for oxidation-reduction characteristics compared with anthraquinone-2,7-disulfonate (in words): from Table 2 (reaction rates and Eo). Here is the method: as §1
The nature of series [6]: Test for absorbing hydrogen sulfide according to the Stretford process (wet desulfurization).
Text: In view of the solubility and oxidation-reduction characteristics above described, the anthraquinone compounds of the general formulas (I) and (II) are expected to exert an equivalent performance to anthraquinone-2,7-disulfonate as an oxidation-reduction reagent used for the Stretford process. […] The results of the test are given in Examples 11-17. The compounds of the general formulas (I) and (II) exerted in the Stretford process an equivalent desulfurization performance to anthraquinone-2,7-disulfonates. In other words, these anthraquinone compounds are quite equivalent to or somewhat better than anthraquinone-2,7-disulfonate in elimination rate of hydrogen sulfide (desulfurization ratio), a conversion rate of the absorbed hydrogen sulfide to elemental sulfur and a concentration of the residual hydrogen sulfide in the refined gas.
(§2) An absorption column was prepared by charging a glass tube (with a jacket) of 10 cm in inner diameter and 100 cm in length with a basket type filler of polypropylene (Tellerette S available from Nittetsu Kakoki KK, Japan) with a diameter of 1 cm up to a height of 95 cm. A hydrogen sulfide-containing gas prepared by mixing a gas composed of 6% carbon dioxide and 94% nitrogen with hydrogen sulfide in an amount of 5 g/Nm^2 was introduced at a flow rate of 230 l/hr. into the absorption column from the bottom thereof. On the other hand, an alkaline aqueous solution containing 0.03 mol/l of sodium metavanadate and 0.005 mol/l of sodium 2-carboxyanthraquinonemonosulfonate, which had been adjusted to have a pH value of 9 by addition of sodium carbonate and was kept at 40° C. was sprayed at a rate of 4.6 l/hr. into the absorption column from the top thereof whereby the hydrogen sulfide-containing gas was brought in the column into contact with the alkaline aqueous solution.
A gas/liquid ratio in this case was 0.02. From the lower part of the absorption column, the liquid was discharged and conveyed into a regeneration column made of a glass tube (with a jacket) of 10 cm in inner diameter and 100 cm in length where elementary sulfur was completely precipitated from the liquid by blowing air thereinto. A residence time of the liquid in the regeneration column was 20 minutes.
as §2, with “lenght” for “length”, “S)” for “S available from Nittetsu Kakoki KK, Japan)”, “g/Nm^3” for “g/Nm^2”, “2-phenoxyanthraquinonetrisulfonate,” for “2-carboxyanthraquinonemonosulfonate,”, “solution. A gas/liquid ratio in this case was 0.02. From the lower part of the absorption column, the liquid was discharged and conveyed into a regeneration column made of a glass tube (with a jacket) of 10 cm in inner diameter and 100 cm in length where elementary sulfur was completely precipitated from the liquid by blowing air thereinto. A residence time of the liquid in the regeneration column was 20 minutes.” for “solution.”
An absorption column was prepared by charging a glass tube (with a jacket) of 10 cm in inner diameter and 100 cm in length with a basket type filler of polypropylene (Tellerett S) with a diameter of 1 cm up to a height of 95 cm. […]

Series [7] in a line: pH of solution in pure water. The series is classed as physicochemical.
The mark [8] stands for this setting: 20g Na2 CO3 + 300g Na2 S2 O3 in 1 liter of water.
Where [9] appears, read: 20g Na2 CO3 + 300g NaSCN in 1 liter of water.
The mark [10] stands for this setting: Mixed aqueous solution: 20 g/l sodium carbonate, 50 g/l sodium sulfate, 100 g/l sodium thiosulfate, 150 g/l sodium thiocyanate.
Where [11] appears, read: Examples 11-12: 0.005 mol/l reagent, 0.03 mol/l sodium metavanadate, pH 9, 40° C., H2S gas 230 l/hr, liquid 4.6 l/hr.
Setting [12] is: practical use, Stretford process.
Setting [13] is: Examples 13-15: 0.005 mol/l reagent, 0.03 mol/l sodium metavanadate, pH 9, 40° C., H2S gas 5 g/Nm^3, 230 l/hr.
Setting [14] is: Example 17: same manner as described in Example 13 (so in the source).

For `O=C1c2ccc(S(=O)(=O)O)cc2C(=O)c2ccc(S(=O)(=O)O)cc21` [anthraquinone-2,6-disulfonic acid], the “solubility (in words)” value in series [1] is given as “very poor solubility”.
Broadly, the Solubility is the concentration that dissolves in the medium under given conditions. Regarding `O=C1c2ccc(S(=O)(=O)[O-])cc2C(=O)c2ccc(S(=O)(=O)[O-])cc21.[Na+].[Na+]` [reference compound], the Solubility was under 1 g/L in series [2] (setting [8]), under 1 g/L in series [2] (setting [9]), under 1 g/L in series [2] (setting [10]) and 39 g/L in series [2] (Water).
`O=C1c2ccc(S(=O)(=O)[O-])cc2C(=O)c2cc(S(=O)(=O)[O-])ccc21.[Na+].[Na+]` [reference compound]: the “Time required for reduction to the leuco form” value (“Time required for reduction” for short) in series [3] amounted to 5 min. In addition, in series [4], the “Time required for oxidation to regenerate the quinone form” value (“Time required for oxidation” for short) was 15 min. The “Standard oxidation-reduction potential Eo” value in series [5] amounted to 0.29 V. In addition, the desulfurization ratio in series [6] (setting [11]) was determined as 99.6%. Moreover, the Solubility in series [2] (setting [8]) was found to be 10 g/L; in series [2] (setting [9]), 8 g/L; in series [2] (setting [10]), 5 g/L; in series [2] (Water), 305 g/L.
Take `O=C1c2ccccc2C(=O)c2cc(Oc3ccc(S(=O)(=O)O)cc3S(=O)(=O)O)ccc21` [sodium 2-phenoxyanthraquinone-2',4'-disulfonate, reference compound]: in series [5] (temperature not given), the standard oxidation-reduction potential turned out to be 0.21 V. For the same molecule, the “suitability for use in the Stretford process (in words)” value in series [6] (Stretford process) is reported as “unsuited for use in the Stretford process”. Also, in series [6] (setting [12]), the “capturing rate for hydrogen sulfide (in words)” value is given as “inferior” and the “oxidation efficiency of hydrogen sulfide to elemental sulfur (in words)” value was “inferior”.
With “Sodium 2-phenoxyanthraquinonetetrasulfonate”, the “Time required for reduction” value in series [3] came to 5 min. Besides, the “Time required for oxidation” value in series [4] was 15 min. In addition, the “Standard oxidation-reduction potential Eo” value in series [5] is 0.28 V. Moreover, the “oxidation-reduction characteristics compared with anthraquinone-2,7-disulfonate (in words)” value (from here on “oxidation-reduction characteristics”) in series [5] is “very similar in oxidation-reduction characteristics to sodium anthraquinone-2,7-disulfonate”. Also, in series [6] (setting [13]), the desulfurization ratio entry was “at least 99.7%”. The Solubility was over 300 g/L in series [2] (setting [8]), over 200 g/L in series [2] (setting [9]), over 200 g/L in series [2] (setting [10]) and over 600 g/L in series [2] (Water).
“ammonium 2-carboxyanthraquinonemonosulfonate”: the desulfurization ratio entry in series [6] (setting [11]) is reported as “at least 99.7%”.
Regarding “ammonium 2-phenoxyanthraquinonetetrasulfonate”, the desulfurization ratio result in series [6] (setting [13]) is listed as “at least 99.7%”.
“potassium 2-carboxyanthraquinonemonosulfonate”: the desulfurization ratio entry in series [6] (setting [11]) was “at least 99.7%”.
For “potassium 2-phenoxyanthraquinonetetrasulfonate”, the desulfurization ratio entry in series [6] (setting [13]) is given as “at least 99.7%”.
Consider “potassium 2-phenoxyanthraquinonetrisulfonate”, for which, in series [6] (setting [13]), the desulfurization ratio result is listed as “at least 99.7%”.
For the molecule “sodium 2-carboxyanthraquinonemonosulfonate”, in series [3], the “Time required for reduction” value amounted to 5 min. Also, the “Time required for oxidation” value in series [4] worked out at 15 min. Besides, in series [5], the “Standard oxidation-reduction potential Eo” value is given as 0.29 V. Also, in series [5], the “oxidation-reduction characteristics” value was “very similar in oxidation-reduction characteristics to sodium anthraquinone-2,7-disulfonate”. For the same molecule, in series [6] (Example 11: 0.005 mol/l reagent, 0.03 mol/l sodium metavanadate, pH 9, 40° C.), the “quantity of sulfur recovered, % of hydrogen sulfide contained in the feed gas” value is recorded as 97%. The desulfurization ratio in series [6] (setting [11]) is given as at least 99.7%. Besides, the “pH of the solution” value in series [7] is on record as 3-4. The Solubility in series [2] (setting [8]) turned out to be 38 g/L; in series [2] (setting [9]) it was 25 g/L; in series [2] (setting [10]), 15 g/L; in series [2] (Water), 12 g/L. Further, the “solubility as disodium salt” value in series [2] (neutral or weakly alkaline solution, as disodium salt) is at least 200 g/L.
For “sodium 2-carboxyanthraquinonetetrasulfonate”, the desulfurization ratio result in series [6] (setting [14]) is recorded as “at least 99.7%”.
For “sodium 2-phenoxyanthraquinonetrisulfonate”, the “Time required for reduction” value in series [3] is 5 min. Also, the “Time required for oxidation” value in series [4] stood at 15 min. For the same molecule, in series [5], the “Standard oxidation-reduction potential Eo” value came out at 0.27 V. Besides, the “oxidation-reduction characteristics” value in series [5] was “very similar in oxidation-reduction characteristics to sodium anthraquinone-2,7-disulfonate”. In addition, the “quantity of sulfur recovered, % of hydrogen sulfide contained in the feed gas” value in series [6] (Example 13: 0.005 mol/l reagent, 0.03 mol/l sodium metavanadate, pH 9, 40° C.) turned out to be 97%. Also, the desulfurization ratio entry in series [6] (setting [14]) is reported as “at least 99.7%”; in series [6] (setting [13]), at least 99.7%. The Solubility was over 200 g/L in series [2] (setting [8]), over 100 g/L in series [2] (setting [9]), over 100 g/L in series [2] (setting [10]) and over 400 g/L in series [2] (Water).

Source of the values: patent US4342700A, “Oxidation-reduction reagents for a wet desulfurization process and a process for preparing same” (Mitsui Toatsu Chemicals, Inc., priority 1978, dated 1982).
